Patent US6723718B2, “Substituted α, β-anellated butyrolactones” (Bayer Aktiengesellschaft, priority 1998, dated 2004)

Columns and labels:
[1] = test system: permanent focal cerebral ischaemia in the rat (MCA-O); test: Permanent focal cerebral ischaemia in the rat (MCA-O); format: in vivo; settings: 0.01 mg/kg/h intravenous continuous infusion directly up to 4 hours after the occlusion, infarct size determined after 7 days
Protocol: Permanent Focal Cerebral Ischaemia in the Rat (MCA-O)
Under isoflurane anaesthesia, the middle cerebral artery is exposed on one side and the latter and its side branches are irreversibly sealed by means of electrocoagulation. As a result of the intervention a cerebral infarct is formed. During the operation, the body temperature of the animal is kept at 37° C. After wound closure and wearing off of the anaesthesia, the animals are again released into their cage. Substance administration is carried out according to different time schemes and via different administration routes (i.v., i.p.) after occlusion. The infarct size is determined after 7 days. To do this, the brain is removed, worked up histologically and the infarct volume is determined with the aid of a computer-assisted analysis system.

[2] = test system: subdural haematoma in the rat (SDH); test: Subdural haematoma in the rat (SDH); format: in vivo; settings: 0.01 mg/kg/h intravenous continuous infusion directly up to 4 hours post-trauma
Protocol: Subdural Haematoma in the Rat (SDH)
Under anaesthesia, the animal's own blood is injected subdurally on one side. An infarct is formed under the haematoma. Substance administration is earned out according to different time schemes and via different administration routes (i.v., i.p.).
The determination of the infarct size is carried out as described in the model of permanent focal ischaemia in the rat (MCA-O).

## C=C1C[C@@H]2COC(=O)[C@]2(Cc2ccc3ccccc3c2)C1 [Example 35]
[1]
  % reduction of infarct volume: 38%
[2]
  % reduction of infarct volume: 51%
